One data set concerns MV4-11 cells. The data set is described as follows: MV4-11 Cell Cytotoxicity Assay (CellTiter-Blue, 72 h). Type of data set: cell-based, human. The settings on record: Homo sapiens, MV4-11; MV-4-11 cells. The method, boiled down: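 Cells seeded 24 h before treatment, then exposed 72 h at 37° C, 5% CO2 to inhibitors in triplicate, top concentration 50 μM with 1:2 serial dilutions (0.5% DMSO vehicle). Viability read by CellTiter-Blue fluorescence at 560/590 nm after 1 h.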

For a further data set, the system named is glutathione (GSH). Put plainly: Reactivity Profiling with Glutathione (GSH), half-life by HPLC. The settings on record: 5 mM glutathione (GSH) in IMDM with 10% FBS.

Molecules are shown by their SMILES.

The term IC50 denotes the point on the concentration scale where inhibition reaches its midpoint. A word on the half-life: it is how long it takes for the measured level to halve. High values mean slow loss, low ones fast loss.

In the data set with MV4-11 cells, `COc1cc(C(=O)O)ccc1N(Cc1cccc(C(C)(C)C)c1)C(=O)CN(Cc1c(F)cc(F)cc1F)S(=O)(=O)c1c(F)c(F)c(F)c(F)c1F` [Compound 1150, 4-(N-(3-(tert-butyl)benzyl)-2-(N-(2,4,6-trifluorobenzyl)-(2,3,4,5,6-pentafluoro-phenyl)sulfonamido)acetamido)-3-methoxybenzoic acid] had an IC50 of 0.01 to 316 nM. The same molecule displayed a half-life at 25 μM in the data set on glutathione (GSH) of 0.00167 to 2.37 h.
In turn, `COc1cc(C(=O)O)ccc1N(Cc1cc(C2CC2)cc(C(C)(C)C)c1)C(=O)CN(C12CC(C1)C2)S(=O)(=O)c1c(F)c(F)c(F)c(F)c1F` [Compound 1152, 4-(2-(N-(bicyclo[1.1.1]pentan-1-yl)-(2,3,4,5,6-pentafluorophenyl)sulfon-amido)-N-(3-(tert-butyl)-5-cyclopropylbenzyl)acetamido)-3-methoxybenzoic acid] gave a 50% inhibitory concentration (IC50) with MV4-11 cells of 1000 to 3160 nM. The half-life at 25 μM in the data set on glutathione (GSH) fell in the range of 0.00167 to 2.37 h.
For `COc1cc(C(=O)O)ccc1N(Cc1cccc(N2CCCC2)c1)C(=O)CN(Cc1cnccc1C(F)(F)F)S(=O)(=O)c1c(F)c(F)c(F)c(F)c1F` [Compound 1153, 3-methoxy-4-(2-(N-((4-(trifluoromethyl)pyridin-3-yl)methyl)-(2,3,4,5,6-pentafluoro-phenyl)sulfonamido)-N-(3-(pyrrolidin-1-yl)benzyl)acetamido) benzoic acid], in the data set on MV4-11 cells, the IC50 fell in the range of 316 to 1000 nM. Also, in the data set on glutathione (GSH), the half-life at 25 μM fell in the range of 0.00167 to 2.37 h.
For `COc1cc(C(=O)O)ccc1N(Cc1ccc2ccccc2c1)C(=O)CN(Cc1cnccc1C(F)(F)F)S(=O)(=O)c1c(F)c(F)c(F)c(F)c1F` [Compound 1157, 3-methoxy-4-(N-(naphthalen-2-ylmethyl)-2-(N-((4-(trifluoromethyl)pyridin-3-yl)methyl)-(2,3,4,5,6-pentafluoro-phenyl)sulfonamido)acetamido)benzoic acid] the same measures were 1000 to 3160 nM and 0.00167 to 2.37 h.
`O=C(O)c1ccc(N(Cc2cccc(-n3cccc3)c2)C(=O)CN(Cc2cnccc2C(F)(F)F)S(=O)(=O)c2c(F)c(F)c(F)c(F)c2F)c(OC2CC2)c1` [Compound 1161, 4-(N-(3-(1H-pyrrol-1-yl)benzyl)-2-(N-((4-(trifluoromethyl)pyridin-3-yl)methyl)-(2,3,4,5,6-pentafluoro-phenyl)sulfonamido)acetamido)-3-cyclopropoxybenzoic acid]: in the data set with MV4-11 cells, the half-inhibitory concentration (IC50) was in the range of 316 to 1000 nM. In addition, the half-life at 25 μM in the data set on glutathione (GSH) fell in the range of 0.00167 to 2.37 h.
The molecule `O=C(O)c1ccc(N(Cc2cc(C3CC3)cc(C3CC3)c2)C(=O)CN(Cc2cnccc2C(F)(F)F)S(=O)(=O)c2c(F)c(F)c(F)c(F)c2F)c(OC2CC2)c1` [Compound 1163, 3-cyclopropoxy-4-(N-(3,5-dicyclopropylbenzyl)-2-(N-((4-(trifluoromethyl)pyridin-3-yl)methyl)-(2,3,4,5,6-pentafluoro-phenyl)sulfonamido)acetamido)benzoic acid] came in with an IC50 with MV4-11 cells of 0.01 to 316 nM. The molecule also gave a half-life at 25 μM in the data set with glutathione (GSH) of 2.37 to 4.12 h.
`COc1cc(C(=O)O)ccc1N(Cc1cc(C2CC2)cc(N2CCCC2)c1)C(=O)CN(Cc1cnccc1C(F)(F)F)S(=O)(=O)c1c(F)c(F)c(F)c(F)c1F` [Compound 1165, 4-(N-(3-cyclopropyl-5-(pyrrolidin-1-yl)benzyl)-2-(N-((4-(trifluoromethyl)pyridin-3-yl)methyl)-(2,3,4,5,6-pentafluoro-phenyl)sulfonamido)acetamido)-3-methoxybenzoic acid] came in with an IC50 in the data set with MV4-11 cells of 316 to 1000 nM. The half-life at 25 μM in the data set with glutathione (GSH) was in the range of 0.00167 to 2.37 h.
Taken in the same sequence, the figures for `COc1cc(C(=O)O)ccc1N(Cc1cc(C2CC2)cc(C(C)(C)C)c1)C(=O)CN(Cc1ncc(F)cc1Cl)S(=O)(=O)c1c(F)c(F)c(F)c(F)c1F` [Compound 1179, 4-(N-(3-(tert-butyl)-5-cyclopropylbenzyl)-2-(N-((3-chloro-5-fluoropyridin-2-yl)methyl)-(2,3,4,5,6-pentafluorophenyl)sulfon-amido)acetamido)-3-methoxybenzoic acid] were 0.01 to 316 nM and 2.37 to 4.12 h.
For `COc1cc(C(=O)O)ccc1N(Cc1cc(C2CC2)cc(C(C)(C)C)c1)C(=O)CN(Cc1ccc(F)cc1C#N)S(=O)(=O)c1c(F)c(F)c(F)c(F)c1F` [Compound 1180, 4-(N-(3-(tert-butyl)-5-cyclopropylbenzyl)-2-(N-(2-cyano-4-fluorobenzyl)-(2,3,4,5,6-pentafluorophenyl)sulfon-amido)acetamido)-3-methoxybenzoic acid] the same measures were 0.01 to 316 nM and 2.37 to 4.12 h.
Regarding `Cc1cc(C(=O)O)cc(C)c1N(Cc1cc(C2CC2)cc(C(C)(C)C)c1)C(=O)CN(Cc1c(F)c(F)c(F)c(F)c1F)S(=O)(=O)c1c(F)c(F)c(F)c(F)c1F` [Compound 1201, 4-(N-(3-(tert-butyl)-5-cyclopropylbenzyl)-2-(N-((perfluorophenyl)methyl)-(2,3,4,5,6-pentafluorophenyl)sulfonamido)acetamido)-3,5-dimethylbenzoic acid], the IC50 in the data set on MV4-11 cells was in the range of 316 to 1000 nM. Besides, the half-life at 25 μM in the data set with glutathione (GSH) lay in the range of 9.23 to 1670 h.
In the data set on MV4-11 cells, `O=C(O)c1ccc(N(Cc2cc(C3CC3)cc(C3CC3)c2)C(=O)CN(Cc2ccc(F)cc2Cl)S(=O)(=O)c2ccc(F)nc2)c(OC2CC2)c1` [Compound 1225, 4-(2-(N-(2-chloro-4-fluorobenzyl)-(6-fluoropyridine)-3-sulfonamido)-N-(3,5-dicyclopropylbenzyl)acetamido)-3-cyclopropoxybenzoic acid] registered an IC50 of 3160 to 100000 nM. Also, the half-life at 25 μM with glutathione (GSH) is 9.23 to 1670 h.
In the data set with MV4-11 cells, `COc1ccccc1CN(CC(=O)N(Cc1cc(C2CC2)cc(C(C)(C)C)c1)c1ccc(C(=O)O)cc1OC1CC1)S(=O)(=O)c1c(F)c(F)c(F)c(F)c1F` [Compound 1234, 4-(N-(3-(tert-butyl)-5-cyclopropylbenzyl)-2-(N-(2-methoxybenzyl)-(2,3,4,5,6-pentafluoro-phenyl)sulfonamido)acetamido)-3-cyclopropoxybenzoic acid] yielded an IC50 of 316 to 1000 nM. In the data set with glutathione (GSH), the half-life at 25 μM was in the range of 4.12 to 9.23 h.
Taken in the same sequence, the figures for `CC(C)(C)c1cc(CN(C(=O)CN(Cc2ccccc2OC(F)(F)F)S(=O)(=O)c2c(F)c(F)c(F)c(F)c2F)c2ccc(C(=O)O)cc2OC2CC2)cc(C2CC2)c1` [Compound 1235, 4-(N-(3-(tert-butyl)-5-cyclopropylbenzyl)-2-(N-(2-(trifluoromethoxy)benzyl)-(2,3,4,5,6-pentafluoro-phenyl)sulfonamido)acetamido)-3-cyclopropoxybenzoic acid] were 316 to 1000 nM and 9.23 to 1670 h.
Regarding `CN(C)c1ccccc1CN(CC(=O)N(Cc1cc(C2CC2)cc(C(C)(C)C)c1)c1ccc(C(=O)O)cc1OC1CC1)S(=O)(=O)c1c(F)c(F)c(F)c(F)c1F` [Compound 1236, 4-(N-(3-(tert-butyl)-5-cyclopropylbenzyl)-2-(N-(2-(dimethylamino)benzyl)-(2,3,4,5,6-pentafluorophenyl)sulfon-amido)acetamido)-3-cyclopropoxybenzoic acid], the IC50 with MV4-11 cells was in the range of 316 to 1000 nM. In the data set with glutathione (GSH), this molecule gave a half-life at 25 μM of 9.23 to 1670 h.
For `CC(C)(C)c1cc(CN(C(=O)CN(Cc2ccccc2N2CCCC2)S(=O)(=O)c2c(F)c(F)c(F)c(F)c2F)c2ccc(C(=O)O)cc2OC2CC2)cc(C2CC2)c1` [Compound 1237, 4-(N-(3-(tert-butyl)-5-cyclopropylbenzyl)-2-(N-(2-(pyrrolidin-1-yl)benzyl)-(2,3,4,5,6-pentafluoro-phenyl)sulfonamido)acetamido)-3-cyclopropoxybenzoic acid] the same measures were 316 to 1000 nM and 9.23 to 1670 h.

Source of the values: patent publication US20230159445A1, “STAT INHIBITORY COMPOUNDS AND COMPOSITIONS” (JANPIX LIMITED, priority 2020, published 2023).
